Series [1] is described as follows: solubility of terbinafine in benzyl alcohol. It counts as physicochemical. To be noted: room temperature, with stirring. The protocol: In a preferred embodiment, the antifungal agent, terbinafine (an allylamine compound) used to treat infections of the nails and of the sub and peri-plantar regions of the foot (moccasin distribution) is dissolved in benzyl alcohol at room temperature with the aid of stirring. […] Two grams of terbinafine are therefore dissolved in 5 ml of benzyl alcohol. To this solution 85 ml of ethyl alcohol anhydrous and 10ml of distilled water are added. The final concentration of the active compound terbinafine, is 2% and that of the preferred carrier, benzyl alcohol 5%.

Series [2] concerns T. rubrum, T. mentagrophytes. Briefly: clinical study, topical application, onychomycosis. It counts as in vivo, human. As to conditions: after discontinuation of therapy. From the text: A total of 10 patients, identified clinically and mycologically (T. rubrum, T. mentagrophytes) were all mycologically cured. Within two weeks of applications all patients with intractable, longstanding (of up to 15 years or more) moccasin distribution fungal dermatomycosis were clinically and mycologically cured. After 2 months of application all patients with severe onychomycosis, also of very long standing duration, appeared mycologically cured (negative cultures). […] Some nails continued to display dystrophic changes commensurate with the slow rate of nail growth and replacement. This persistent and possible prophylactic response is attributed to the unique solubility characteristics of the compounds in question and to the ability of the selected solvents to deliver the drug to the subungual or keratin rich regions where the fungi accumulate, and to persist at such sites in a microcrystalline form after precipitation.
Compositions according to the present invention can be applied by conventional methods, including the use of a small brush with a nail-lacquer bottle, a roll-on applicator, or by a squeeze bottle with a small opening. In the results cited above, a small brush with a nail-lacquer bottle was used.

As to `CN(C/C=C/C#CC(C)(C)C)Cc1cccc2ccccc12` [terbinafine], in series [1], the “solubility in benzyl alcohol” value is recorded as “greater than 40 % w/vol”. Besides, the “recurrence upon discontinuation of therapy” value in series [2] is listed as “lack of any recurrence”.
